Source: patent US20240307526A1, “COMPOSITIONS COMPRISING HYDROXYETHYL-CAPPED CATIONIC PEPTOIDS” (priority 2021, published 2024)

Test: Efficacy and toxicology studies (Table 9), intramuscular in rat
Details: mouse efficacy and rat toxicology studies; formulated in DV-140-F2

## CCCCCCCCCCN(CC(N)=O)C(=O)CN(CCCCCCCCCC)C(=O)CN(CCCCCCCCCC)C(=O)CN(CCCCCCCCCC)C(=O)CNCCO [Compound 140]
  tolerability: well-tolerated
